Data as given in paper PMC9394284, “Discovery of Novel Dual Adenosine A2A and A1 Receptor Antagonists with 1H-Pyrazolo[3,4-d]pyrimidin-6-amine Core Scaffold as Anti-Parkinson’s Disease Agents” (Pharmaceuticals, 2022).
Read-outs that look alike come from different tables or passages of the source.

Key:
[1] = system: haloperidol-induced catalepsy; assay: haloperidol-induced catalepsy in female rats (bar test); assay type: in vivo, Sprague Dawley rats
Method: Vehicle or varying amount of 11o (0.3, 1, 3, 10 mg/kg) was administered first, followed by IP injection of 1 mg/kg haloperidol 60 min later.
A total of 120 female Sprague Dawley rats (275~300 g) were purchased from Charles River Laboratories (Charles River, Senneville, QC, Canada) and maintained at Atuka, Inc. All animal studies were conducted at Atuka, Inc. according to CCAC guidelines and under IACUC-approved Animal Use Protocols (AUPs), with IACUC number 6606.0.3 for this study.
The catalepsy study incorporated 12 groups of rats. Ten rats were incorporated into each treatment group (total N = 120 rats). Treatments were divided over 3 consecutive treatment blocks and the order of treatments were randomized within each block and all treatments completed within that block before proceeding to the next. […] Catalepsy was assessed a further 60 min later (t = 120).
Behavior was evaluated in each animal by assessing performance on the bar test. Catalepsy was assessed 60 min following haloperidol administration (120 min following administration of vehicle, 11o or istradefylline). […] The time taken for the animal to remove both paws (decent latency) from the rod and place them back on the surface, in seconds was determined. The test was conducted in triplicate and the average of the three tests were calculated.

[2] = metabolic stability in cryopreserved rat hepatocytes
Method: Metabolic stability of 11o was determined in cryopreserved hepatocytes from mice, rats, dogs, monkeys and human according to the SOPs of Frontage Laboratories Inc. Briefly, cryopreserved hepatocytes for pre-clinical animals and for human (BioIVT, Westbury, NY, USA) were thawed in a 37 °C water bath with gentle shaking until ice had almost melted. The suspensions were immediately transferred to a centrifuge tube (50 mL) containing pre-warmed thawing media at 37 °C with gentle handshaking to prevent the cells from settling. Cell suspensions were centrifuged at 50× g and 4 °C for 5 min. The supernatant was discarded and the pellets were resuspended in prewarmed incubation media (5 mL) at 37 °C. The percentage of viable cells in the suspension was determined by Trypan blue staining method to ensure viability of ≥70 %. […] The samples were centrifuged and aliquots of the supernatant were analyzed for parent compounds by LC/MS/MS using suitable multiple reaction monitoring (MRM) transitions. […] The disappearance of 11o and midazolam was monitored by LC/MS/MS (MRM) analysis of the hepatocyte extracts at each time point. The peak area ratio of the analyte to internal standard was obtained for each sample and the rate of disappearance of 11o was assessed by comparing the peak area ratios at various time points to the peak area ratio obtained at t = 0. The t1/2 is obtained (using the linear portion of semi-log plot of the area ratio vs. time) and the CLint values determined using well-stirred model.

[3] = pharmacokinetics and bioavailability in mouse plasma; assay type: in vivo, Crl:CD-1 mice
Method: Male Crl:CD-1 mice of 9~10 weeks of age were purchased from Charles River Laboratories, USA and maintained at standard food and water ad libitum in temperature-controlled room with 12 h on-off light cycle before the experiment. All procedures described were reviewed and approved by the Institutional Animal Care and Use Committee (IACUC) at Frontage Laboratories Inc. For PO dosing, mice were given 11o dissolved in DMSO: PEG400 (1:3, v:v) via gavage. For IV dosing, 11o solubilized in DMSO: PEG400: saline (1:3:6, v:v) were injected into tail veins at dose volume of 1 mL/kg. For IN dosing, 11o solubilized in DMSO and 25 μL of the appropriate dosing solution was placed near the nares to allow animal to inhale the dose. Three mice were sampled from each group for each blood and brain collection time point. Time points are 0.5, 1, 2, 4, 8, 24 h for PO and IN dosing and 0.083, 1, 2, 4, 8 and 24 h for IV dosing. Mice were euthanized by terminal retro-orbital blood collection under isoflurane anesthesia, followed by opening of the thoracic cavity per facility SOPs. A target volume of 1 mL was collected into tubes containing K3EDTA anti-coagulant, inverted several times and held on wet ice until centrifuged under refrigeration (set at 5 °C for 10 min at 2000× g). Resulting plasma were stored in a freezer set to maintain −70 °C until analyzed for 11o concentration. Brain was removed from each animal and weighed following termination, snap frozen and stored until later use. Plasma and brain PK analysis was conducted using WinNolin Version 6.2.1 (Pharsight, Mountain View, CA, USA), operating as a validated software system. Noncompartmental analysis was conducted using the extravascular administration model for oral dosing and the IV bolus model for IV dosing. The peak plasma and brain concentration, time to achieve peak plasma concentration, half-life, and area under the plasma concentration-time curve (Cmax, Tmax, T1/2 and AUC) were calculated from mean plasma concentrations for each sampling time/dose group for 11o. Nominal blood collection times were used for calculation of PK parameters. Dose proportionality was assessed, and bioavailability was calculated for PO dosing.

[4] = Sprague Dawley, rat, cryopreserved hepatocytes in suspension
[5] = male, Crl:CD-1, inhaled or intranasal, mouse plasma, 10 mg/kg IN
[6] = male, Crl:CD-1, mouse plasma, 1 mg/kg IV
[7] = male, Crl:CD-1, mouse plasma, 1 mg/kg PO
[8] = male, Crl:CD-1, mouse plasma, 3 mg/kg PO
[9] = male, Crl:CD-1, mouse plasma, 10 mg/kg PO

Cc1cc(Cn2ncc3c(-c4cccc(C#N)c4F)nc(N)nc32)ccc1N [11o, 3-(6-Amino-1-(4-amino-3-methylbenzyl)-1H-pyrazolo[3,4-d]pyrimidin-4-yl)-2-fluorobenzonitrile]
reversal of haloperidol-induced catalepsy (latency to step down) ([1]; 0.3, 1, 3, 10 mg/kg PO, maximum effect at 10 mg/kg, comparable to istradefylline 1 mg/kg): dose-dependently reversed haloperidol-induced catalepsy | ED50 ([1]; Rattus norvegicus, PO 60 min before haloperidol 1 mg/kg, read-out: graded ED50, reversal of haloperidol-induced catalepsy): 3 to 10 mg/kg | CLint scaled at 1 μM [2, 4]: 69.2 mL/min/kg | half-life at 1 μM [2, 4]: 0.782 h | hepatocyte CLint at 1 μM [2, 4]: 14.8 µL/min/1e6 cells | Intrinsic Clearance ([2]; rat hepatocytes, 1 μM 11o): 0.0148 mL/min/10^6 Cells | Tmax ([3]; male, Crl:CD-1, inhaled or intranasal, mouse plasma, 1 mg/kg IN): 0.5 h | Tmax ([3]; male, Crl:CD-1, inhaled or intranasal, mouse plasma, 3 mg/kg IN): 0.5 h | Tmax [3, 5]: 0.5 h | half-life [3, 5]: 7.4 h | AUC(0-t) ([3]; male, Crl:CD-1, mouse, plasma, inhaled or intranasal, 1 mg/kg, mouse plasma, 1 mg/kg IN): 74.9 ng·h/mL | Cmax ([3]; male, Crl:CD-1, mouse, plasma, inhaled or intranasal, 1 mg/kg, mouse plasma, 1 mg/kg IN, read-out: Cmax): 23.3 ng/mL | AUC(0-t) ([3]; male, Crl:CD-1, mouse, plasma, inhaled or intranasal, 3 mg/kg, mouse plasma, 3 mg/kg IN): 183 ng·h/mL | Cmax ([3]; male, Crl:CD-1, mouse, plasma, inhaled or intranasal, 3 mg/kg, mouse plasma, 3 mg/kg IN, read-out: Cmax): 53.9 ng/mL | AUC(0-t) ([3]; male, Crl:CD-1, mouse, plasma, inhaled or intranasal, 10 mg/kg, mouse plasma, 10 mg/kg IN): 444 ng·h/mL | Cmax ([3]; male, Crl:CD-1, mouse, plasma, inhaled or intranasal, 10 mg/kg, mouse plasma, 10 mg/kg IN, read-out: Cmax): 88.5 ng/mL | AUC(0-t) ([3]; male, Crl:CD-1, mouse, plasma, iv, 1 mg/kg, mouse plasma, 1 mg/kg IV): 332 ng·h/mL | Cmax ([3]; male, Crl:CD-1, mouse, plasma, iv, 1 mg/kg, mouse plasma, 1 mg/kg IV, read-out: Cmax): 459 ng/mL | AUC(0-t) ([3]; male, Crl:CD-1, mouse, plasma, po, 1 mg/kg, mouse plasma, 1 mg/kg PO): 176 ng·h/mL | Cmax ([3]; male, Crl:CD-1, mouse, plasma, po, 1 mg/kg, mouse plasma, 1 mg/kg PO, read-out: Cmax): 36.8 ng/mL | AUC(0-t) ([3]; male, Crl:CD-1, mouse, plasma, po, 3 mg/kg, mouse plasma, 3 mg/kg PO): 577 ng·h/mL | Cmax ([3]; male, Crl:CD-1, mouse, plasma, po, 3 mg/kg, mouse plasma, 3 mg/kg PO, read-out: Cmax): 81.4 ng/mL | AUC(0-t) ([3]; male, Crl:CD-1, mouse, plasma, po, 10 mg/kg, mouse plasma, 10 mg/kg PO): 2250 ng·h/mL | Cmax ([3]; male, Crl:CD-1, mouse, plasma, po, 10 mg/kg, mouse plasma, 10 mg/kg PO, read-out: Cmax): 367 ng/mL | bioavailability ([3]; male, Crl:CD-1, plasma, other: intranasal (IN), placed near the nares, mouse, IN, 1, 3 and 10 mg/kg, depending on the dose, read-out: Bioavailability after IN administration): 13.4 to 22.6% | Tmax [3, 6]: 0.083 h | half-life [3, 6]: 3.95 h | Tmax [3, 7]: 2 h | half-life [3, 7]: 4.38 h | Tmax [3, 8]: 2 h | half-life [3, 8]: 3.66 h | Tmax [3, 9]: 2 h | half-life [3, 9]: 5.69 h | BA ([3]; mouse plasma, 1 mg/kg IN, relative to AUClast of 1 mg/kg IV): 22.6% | BA ([3]; mouse plasma, 1 mg/kg IV (reference for the calculation)): 100% | BA ([3]; mouse plasma, 1 mg/kg PO, relative to AUClast of 1 mg/kg IV, 1 mg/kg): 53% | BA ([3]; mouse plasma, 3 mg/kg IN, relative to AUClast of 1 mg/kg IV): 18.4% | Cmax ([3]; mouse plasma, 3 mg/kg PO, 3 mg/kg): 81.3 ng/mL | BA ([3]; mouse plasma, 3 mg/kg PO, relative to AUClast of 1 mg/kg IV): 57.9% | BA ([3]; mouse plasma, 10 mg/kg IN, relative to AUClast of 1 mg/kg IV): 13.4% | AUClast ([3]; mouse plasma, 10 mg/kg PO, 10 mg/kg): 2249 ng·h/mL | BA ([3]; mouse plasma, 10 mg/kg PO, relative to AUClast of 1 mg/kg IV): 67.7%
